Experimental data published in the Kinase Knowledgebase extract (Sharma et al. 2016).

Target: CDK2 (UniProt P24941)
Experiment: Enzyme Assay
Conditions: concentration not given here

| inhibition [%] | SMILES |
| --- | --- |
| 100 | CC(c1ccccc1)c1cc(C(N)=O)c(NC(=O)c2nccc3ccccc23)s1 (configuration not stated) |
| 100 | COc1ccccc1OCC(=O)Nc1sc(C)c(C)c1C(N)=O |
| 100 | NC(=O)c1cc(-c2ccccc2)sc1NC(=O)C(O)c1ccccc1 (configuration not stated) |
| 100 | NC(=O)c1cc(Cc2ccccc2)sc1NC(=O)/C=C\c1cccc(O)c1 |
| 100 | CC(c1ccccc1)c1cc(C(N)=O)c(NC(=O)c2cnnc3ccccc23)s1 (configuration not stated) |
| 100 | CC(c1ccccc1)c1cc(C(N)=O)c(NC(=O)c2ccc3ncccc3c2)s1 (configuration not stated) |
| 100 | NC(=O)c1cc(-c2ccccc2)sc1NC(=O)c1cc2ccccc2o1 |
| 100 | CC(C)c1cc(C(N)=O)c(NC(=O)CCc2ccccc2)s1 |
| 100 | CC(c1ccccc1)c1cc(C(N)=O)c(NC(=O)CC2CCc3ccccc32)s1 (configuration not stated) |
| 100 | CC(c1ccccc1)c1cc(C(N)=O)c(NC(=O)c2ccc(O)c(Cl)c2)s1 (configuration not stated) |
| 100 | NC(=O)c1cc(Cc2ccccc2)sc1NC(=O)/C=C/c1ccccc1O |
| 100 | COc1ccc(C(=O)Nc2sc(Cc3ccccc3)cc2C(N)=O)cc1O |
| 100 | NC(=O)c1cc(-c2ccccc2)sc1NC(=O)Cc1cccc(O)c1 |
| 100 | NC(=O)c1cc(Cc2ccccc2)sc1NC(=O)COCc1ccccc1 |
| 100 | CC(c1ccccc1)c1cc(C(N)=O)c(NC(=O)c2ccc(Cl)cc2O)s1 (configuration not stated) |
| 100 | CC(C)c1cc(C(N)=O)c(NC(=O)/C=C\c2ccccc2)s1 |
| 100 | CC(=O)c1ccccc1C(=O)Nc1sc(-c2ccccc2)cc1C(N)=O |
| 100 | Cc1ccc(C(=O)Nc2sc(-c3ccccc3)cc2C(N)=O)cc1O |
| 100 | NC(=O)c1cc(-c2ccccc2)sc1NC(=O)Cc1ccccc1O |

| inhibition [%] | SMILES |
| --- | --- |
| 100 | CN(C)c1cccc(C(=O)Nc2sc(Cc3ccccc3)cc2C(N)=O)c1 |
| 100 | NC(=O)/C=C\C(=O)N(C(N)=O)c1sc(Cc2ccccc2)cc1C(N)=O |
| 100 | COc1cccc(O)c1C(=O)Nc1sc(Cc2ccccc2)cc1C(N)=O |
| 100 | CC(c1ccccc1)c1cc(C(N)=O)c(NC(=O)CNC(=O)c2ccccc2)s1 (configuration not stated) |
| 100 | NC(=O)c1cc(-c2ccccc2)sc1NC(=O)c1ccc(Cl)nc1 |
| 100 | NC(=O)c1cc(Cc2ccccc2)sc1NC(=O)c1ccc2c(c1)C=NC2 |
| 100 | Cc1c(O)cccc1C(=O)Nc1sc(-c2ccccc2)cc1C(N)=O |
| 100 | NC(=O)c1cc(Cc2ccccc2)sc1NC(=O)c1c[nH]c2ccccc12 |
| 100 | NC(=O)c1cc(Cc2ccccc2)sc1NC(=O)CCN1C(=O)C=CC1=O |
| 100 | CC(c1ccccc1)c1cc(C(N)=O)c(NC(=O)c2ccc3ccccc3c2)s1 (configuration not stated) |
| 100 | NC(=O)c1cc(Cc2ccccc2)sc1NC(=O)COc1ccc(O)cc1 |
| 100 | CC(c1ccccc1)c1cc(C(N)=O)c(NC(=O)C2CCc3ccccc3C2)s1 (configuration not stated) |
| 100 | NC(=O)c1cc(-c2ccccc2)sc1NC(=O)Cc1ccc(O)cc1 |
| 100 | Cc1ccccc1CC(=O)Nc1sc(C(C)C)cc1C(N)=O |
| 100 | COc1ccc(C)c(C(=O)Nc2sc(Cc3ccccc3)cc2C(N)=O)c1 |
| 100 | CC(c1ccccc1)c1cc(C(N)=O)c(NC(=O)c2cccc3cccnc23)s1 (configuration not stated) |
| 100 | CC(=O)Nc1cccc(C(=O)Nc2sc(C(C)c3ccccc3)cc2C(N)=O)c1 (configuration not stated) |
| 100 | CC(c1ccccc1)c1cc(C(N)=O)c(NC(=O)c2cccc3c2C(=O)N=N3)s1 (configuration not stated) |
| 100 | NC(=O)c1cc(-c2ccccc2)sc1NC(=O)COc1ccccc1 |

Further lines, the molecule ahead of its results:

| SMILES | inhibition [%] |
| --- | --- |
| CN1CCc2c(sc(NC(=O)c3cc4c(Cl)cc(Cl)cc4[nH]3)c2C(N)=O)C1 | 100 |
| CC(=O)NC(=O)C(Nc1sc(-c2ccccc2)cc1C(N)=O)C(C)C (configuration not stated) | 100 |
| CC1NC(=O)NC1CCCCCC(=O)Nc1sc2c(c1C(N)=O)CCN(C)C2 (configuration not stated) | 100 |
| NC(=O)c1c(NC(=O)c2c[nH]nc2N)sc2c1CCCC2 | 100 |
| Cc1noc(C)c1C(=O)Nc1sc(C(C)C)cc1C(N)=O | 100 |
| CC(C)c1cc(C(N)=O)c(NC(=O)c2ccc(C#N)cc2)s1 | 100 |
| Cc1csc(NC(=O)Cc2csc3ccccc23)c1C(N)=O | 100 |
| N#CC1(C(=O)Nc2sc3c(c2C(N)=O)CCCC3)CC1 | 100 |
| Cc1sc(NC(=O)c2ccc(-n3cccc3)cc2)c(C(N)=O)c1C | 100 |
| Cc1csc(NC(=O)c2cccc(S(C)(=O)=O)c2)c1C(N)=O | 100 |
| Cc1sc(NC(=O)c2cccc(C(F)(F)F)c2)c(C(N)=O)c1C | 100 |
| NC(=O)c1c(NC(=O)CCCl)sc2c1CCCC2 | 100 |
| NC(=O)c1c(NC(=O)C2CC2)sc2c1CCCC2 | 100 |
| CC(C)c1cc(C(N)=O)c(NC(=O)/C=C/c2ccncc2)s1 | 100 |
| CC(=O)NC(=O)C(CC(C)C)Nc1sc(C(C)c2ccccc2)cc1C(N)=O (configuration not stated) | 100 |
| Cc1csc(NC(=O)CNC(=O)/C=C/c2ccco2)c1C(N)=O | 100 |
| Cc1sc(NC(=O)c2ccc(C(F)(F)F)cc2)c(C(N)=O)c1C | 100 |
| CC(C)c1cc(C(N)=O)c(NC(=O)CCc2cccnc2)s1 | 100 |
| Cc1sc(NC(=O)c2ccccc2-n2cccc2)c(C(N)=O)c1C | 100 |
| CN1CCc2c(sc(NC(=O)Cc3ccc(S(C)(=O)=O)cc3)c2C(N)=O)C1 | 100 |
| Cc1ccc(S(=O)(=O)NCC(=O)Nc2sc3c(c2C(N)=O)CCN(C)C3)cc1 | 100 |
| Cc1oncc1C(=O)Nc1sc2c(c1C(N)=O)CCCC2 | 100 |
| COc1ccc(/C=C\C(=O)Nc2scc(C)c2C(N)=O)cc1OC | 100 |
| Cc1ccc(S(=O)(=O)CC(=O)Nc2sc3c(c2C(N)=O)CCN(C)C3)cc1 | 100 |
| CC(C)c1cc(C(N)=O)c(NC(=O)c2ccc(F)cc2)s1 | 100 |

| SMILES | inhibition [%] |
| --- | --- |
| CC(C)c1cc(C(N)=O)c(NC(=O)CCNC(N)=O)s1 | 100 |
| CN1CCc2c(sc(NC(=O)c3cc(O)c4ccc(Br)cc4n3)c2C(N)=O)C1 | 100 |
| CN1CCc2c(sc(NC(=O)Cc3ccccc3I)c2C(N)=O)C1 | 100 |
| CN1CCc2c(sc(NC(=O)CCCc3c[nH]c4ccccc34)c2C(N)=O)C1 | 100 |
| CC(C)=NOC(C)C(=O)Nc1sc(C(C)C)cc1C(N)=O (configuration not stated) | 100 |
| CC(=O)N1CCC(C(=O)Nc2sc(C(C)c3ccccc3)cc2C(N)=O)CC1 (configuration not stated) | 100 |
| CN1CCc2c(sc(NC(=O)Cc3c[nH]c4cccc(Cl)c34)c2C(N)=O)C1 | 100 |
| COc1ccc(/C=C\C(=O)Nc2scc(C)c2C(N)=O)c(OC)c1 | 100 |
| Cc1csc(NC(=O)c2ccc(S(N)(=O)=O)cc2)c1C(N)=O | 100 |
| CC(C)=CC(=O)Nc1sc2c(c1C(N)=O)CCCC2 | 100 |
| CC(C)c1cc(C(N)=O)c(NC(=O)C2CCCCCC2)s1 | 100 |
| CC(C)c1cc(C(N)=O)c(NC(=O)CC2CCCC2)s1 | 100 |
| CN(C)CC(=O)Nc1sc2c(c1C(N)=O)CCCC2 | 100 |
| Cc1cccc(CC(=O)Nc2sc(C(C)C)cc2C(N)=O)c1 | 100 |
| Cc1sc(NC(=O)c2nc3ccccc3nc2O)c(C(N)=O)c1C | 100 |
| COc1cc(OC)c(C(=O)Nc2scc(C)c2C(N)=O)cc1OC | 100 |
| COc1ccc(OC)c(C(=O)Nc2sc(C)c(C)c2C(N)=O)c1 | 100 |
| Cc1sc(NC(=O)/C=C\c2ccc3c(c2)OCO3)c(C(N)=O)c1C | 100 |
| Cc1sc(NC(=O)c2ccc(Cl)cc2Cl)c(C(N)=O)c1C | 100 |
| NC(=O)c1c(NC(=O)c2c[nH]cn2)sc2c1CCCC2 | 100 |
| Cc1ccccc1C(=O)Nc1sc2c(c1C(N)=O)CCCC2 | 100 |
| Cc1sc(NC(=O)c2cccc(Cl)c2Cl)c(C(N)=O)c1C | 100 |
| Cc1csc(NC(=O)CS(=O)(=O)c2ccccc2)c1C(N)=O | 100 |
| CC(=O)NC(C(=O)Nc1scc(C)c1C(N)=O)c1ccccc1 (configuration not stated) | 100 |
| CN1CCc2c(sc(NC(=O)c3ccc(-c4ccc(Cl)cc4)o3)c2C(N)=O)C1 | 100 |

| SMILES | inhibition [%] |
| --- | --- |
| COc1ccc(Cl)cc1C(=O)Nc1sc(C)c(C)c1C(N)=O | 100 |
| CC(=O)Nc1ccc(Br)c(C(=O)Nc2sc3c(c2C(N)=O)CCN(C)C3)c1 | 100 |
| Cc1cccc(C(=O)Nc2sc(C(C)C)cc2C(N)=O)c1C | 100 |
| CCC(N)C(=O)N(C(N)=O)c1sc(C(C)C)cc1C(N)=O (configuration not stated) | 100 |
| COc1ccc2[nH]c(C)c(CC(=O)Nc3sc4c(c3C(N)=O)CCN(C)C4)c2c1 | 100 |
| CC(C)c1cc(C(N)=O)c(NC(=O)c2cccc(C#N)c2)s1 | 100 |
| NC(=O)c1c(NC(=O)c2cn[nH]c2)sc2c1CCCC2 | 100 |
| Cc1nocc1C(=O)Nc1sc2c(c1C(N)=O)CCCC2 | 100 |
| Cc1sc(NC(=O)CCC(=O)c2cccs2)c(C(N)=O)c1C | 100 |
| CCCN(CCC)C(=O)[C@H](C)Nc1sc(C(C)c2ccccc2)cc1C(N)=O (some centres not stated) | 100 |
| NC(=O)c1c(NC(=O)c2cccs2)sc2c1CCCC2 | 100 |
| CC(C)c1cc(C(N)=O)c(NC(=O)c2ccccc2F)s1 | 100 |
| COc1cc(OC)c(C(=O)Nc2sc3c(c2C(N)=O)CCN(C)C3)c(OC)c1 | 100 |
| CC(NC(=O)C(C)Nc1sc(-c2ccccc2)cc1C(N)=O)C(=O)O (configuration not stated) | 100 |
| CC(=O)N[C@@H](CC(N)=O)C(=O)Nc1sc(C(C)c2ccccc2)cc1C(N)=O (some centres not stated) | 100 |
| NC(=O)c1c(NC(=O)c2ccccn2)sc2c1CCCC2 | 100 |
| Cc1csc(NC(=O)c2cnn(-c3ccccc3)c2C)c1C(N)=O | 100 |
| CC(C)c1cc(C(N)=O)c(NC(=O)C2CC3C=CC2C3)s1 (configuration not stated) | 100 |
| CN1CCc2c(sc(NC(=O)C(Cc3ccccc3)NC(=O)c3ccccc3)c2C(N)=O)C1 (configuration not stated) | 100 |
| Cc1csc(CC(=O)c2c(-c3ccccc3)noc2C)c1C(N)=O | 100 |
| CC(=O)N1CCC(O)C1C(=O)Nc1sc(C(C)c2ccccc2)cc1C(N)=O (configuration not stated) | 100 |
| CC(=O)N(C#N)c1sc2c(c1C(N)=O)CCCC2 | 100 |
| Cc1sc(NC(=O)c2ccccc2C(F)(F)F)c(C(N)=O)c1C | 100 |
| C#CC(=O)N(c1ccccc1)c1sc(C(C)C)cc1C(N)=O | 100 |
